The results in this text go back to ChEMBL document CHEMBL1201862, “PubChem BioAssay data set” (2004).

Calls of active or inactive are those of the source.

Assay [1] addresses Nucleotide-binding oligomerization domain-containing protein 2 (Homo sapiens, UniProt Q9HC29). Put plainly: NOD2 signaling inhibitors, cell-based, luminescence, uHTS, HEK293 (AID 1566). Type of assay: functional.
The target in another assay is Cytochrome P450 3A4 (Homo sapiens, UniProt P08684). The following applies: Potency.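 Note: confirmatory qHTS run detecting inhibitors and substrates of CYP3A4.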
Chain of Cytochrome P450 3A4 (P08684 whole entry): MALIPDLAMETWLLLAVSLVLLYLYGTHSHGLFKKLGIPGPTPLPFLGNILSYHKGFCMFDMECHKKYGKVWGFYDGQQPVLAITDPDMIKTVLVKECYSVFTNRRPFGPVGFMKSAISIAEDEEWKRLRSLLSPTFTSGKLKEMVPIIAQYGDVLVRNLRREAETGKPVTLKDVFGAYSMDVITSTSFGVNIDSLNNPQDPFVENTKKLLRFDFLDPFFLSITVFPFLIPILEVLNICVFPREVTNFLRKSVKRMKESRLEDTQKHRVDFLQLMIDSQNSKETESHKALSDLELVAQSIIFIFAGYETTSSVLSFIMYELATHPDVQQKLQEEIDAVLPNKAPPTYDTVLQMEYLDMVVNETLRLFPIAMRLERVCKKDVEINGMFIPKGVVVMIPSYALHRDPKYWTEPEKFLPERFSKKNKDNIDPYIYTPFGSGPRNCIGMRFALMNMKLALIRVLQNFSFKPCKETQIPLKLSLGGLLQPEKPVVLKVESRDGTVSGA
Assay [2] addresses Delta-type opioid receptor (Homo sapiens, UniProt P41143). Briefly: Counterscreen for agonists of heterodimerization of the mu 1 (OPRM1) and delta 1 (OPRD1) opioid receptors: Luminescence-based cell-based high throughput dose response assay to identify agonists of OPRD1 homodimerization. [Related pubchem assays (depositor defined):AID504326, AID504355, AID504692, AID504904, AID504905]. Type of assay: functional.

Assay [3] has as its target 5-hydroxytryptamine receptor 5A (Homo sapiens, UniProt P47898). Briefly: Counterscreen for agonists of OPRM1-OPRD1 heterodimerization: luminescence-based cell-based high throughput dose response assay to identify agonists of 5-hydroxytryptamine (serotonin) 5A receptor (HTR5A). [Related pubchem assays (depositor defined):AID504326, AID504355, AID504692, AID504904, AID504905]. Type of assay: functional. (Counterscreens check selectivity or assay interference.)

For another assay, the target named is Mu-type opioid receptor (Homo sapiens, UniProt P35372). Put plainly: Counterscreen for agonists of heterodimerization of the mu 1 (OPRM1) and delta 1 (OPRD1) opioid receptors: Luminescence-based cell-based high throughput dose response assay to identify agonists of OPRM1 homodimerization. Type of assay: functional.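 Note: U2OS cells expressing OPRM1 and beta-arrestin as split beta-galactosidase partners.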
Chain of Mu-type opioid receptor (P35372 whole entry): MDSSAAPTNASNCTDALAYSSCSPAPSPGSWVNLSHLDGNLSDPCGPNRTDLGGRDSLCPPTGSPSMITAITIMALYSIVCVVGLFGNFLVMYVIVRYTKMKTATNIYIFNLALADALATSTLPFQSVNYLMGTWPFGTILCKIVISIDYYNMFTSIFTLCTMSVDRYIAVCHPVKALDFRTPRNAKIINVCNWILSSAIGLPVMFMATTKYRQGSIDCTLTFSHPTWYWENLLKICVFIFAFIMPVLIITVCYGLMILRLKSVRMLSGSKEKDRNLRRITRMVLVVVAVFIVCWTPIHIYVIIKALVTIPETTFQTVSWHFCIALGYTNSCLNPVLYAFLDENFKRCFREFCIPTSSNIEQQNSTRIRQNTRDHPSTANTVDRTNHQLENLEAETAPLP
The target of assay [4] is T1, Short transient receptor potential channel 4 (Mus musculus, UniProt Q9QUQ5).
T1 sequence (Q9QUQ5 whole entry): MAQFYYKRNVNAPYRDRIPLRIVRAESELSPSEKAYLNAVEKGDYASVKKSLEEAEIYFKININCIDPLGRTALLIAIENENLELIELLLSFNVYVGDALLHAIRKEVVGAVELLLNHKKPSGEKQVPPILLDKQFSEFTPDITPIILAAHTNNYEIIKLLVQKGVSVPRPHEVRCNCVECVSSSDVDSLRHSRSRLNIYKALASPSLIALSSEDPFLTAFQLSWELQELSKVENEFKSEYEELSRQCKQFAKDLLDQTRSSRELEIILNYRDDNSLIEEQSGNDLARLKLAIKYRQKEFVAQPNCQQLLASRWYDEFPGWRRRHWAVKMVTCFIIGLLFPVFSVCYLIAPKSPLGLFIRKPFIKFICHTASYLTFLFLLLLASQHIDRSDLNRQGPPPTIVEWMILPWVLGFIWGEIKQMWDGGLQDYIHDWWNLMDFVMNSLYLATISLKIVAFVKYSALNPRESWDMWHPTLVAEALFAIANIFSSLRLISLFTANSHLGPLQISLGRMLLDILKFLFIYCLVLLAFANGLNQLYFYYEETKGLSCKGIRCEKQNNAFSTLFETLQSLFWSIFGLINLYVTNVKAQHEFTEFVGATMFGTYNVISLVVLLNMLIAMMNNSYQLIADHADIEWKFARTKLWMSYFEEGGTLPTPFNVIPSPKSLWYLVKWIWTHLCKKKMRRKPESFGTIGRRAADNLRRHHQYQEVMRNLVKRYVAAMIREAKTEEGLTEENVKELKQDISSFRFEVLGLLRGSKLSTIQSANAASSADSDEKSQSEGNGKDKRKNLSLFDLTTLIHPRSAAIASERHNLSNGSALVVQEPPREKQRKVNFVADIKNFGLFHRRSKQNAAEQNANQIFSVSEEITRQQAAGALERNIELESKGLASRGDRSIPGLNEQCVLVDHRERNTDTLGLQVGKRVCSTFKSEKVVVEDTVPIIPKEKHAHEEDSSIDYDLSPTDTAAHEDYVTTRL
Put plainly: mouse TRPC4 channel activators, dose response, cell-based, HEK293 TRPC4/mu-opioid, Fluo-4 calcium (AID 434937). Type of assay: functional.

The target of assay [5] is DNA dC->dU-editing enzyme APOBEC-3A (Homo sapiens, UniProt P31941). Put plainly: Dose Response confirmation of small molecule APOBEC3A DNA Deaminase Inhibitors via a fluorescence-based single-stranded DNA deaminase assay. [Related pubchem assays (depositor defined):AID493011, AID493024]. Type of assay: functional.
Chain of DNA dC->dU-editing enzyme APOBEC-3A (P31941 whole entry): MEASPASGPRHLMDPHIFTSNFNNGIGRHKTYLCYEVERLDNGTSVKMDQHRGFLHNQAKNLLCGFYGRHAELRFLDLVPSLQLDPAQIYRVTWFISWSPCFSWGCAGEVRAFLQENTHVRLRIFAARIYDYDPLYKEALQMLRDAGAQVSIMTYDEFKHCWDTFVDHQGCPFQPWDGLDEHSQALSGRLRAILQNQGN
Assay [6] deals with DNA dC->dU-editing enzyme APOBEC-3G (Homo sapiens, UniProt Q9HC16). The format is functional.
The target in assay [7] is T2, Voltage-gated N-type calcium channel alpha-1B subunit/Amyloid beta A4 precursor protein-binding family A member 1 (Homo sapiens, UniProt Q00975+Q02410). Type of assay: protein assay.
T2 sequence (Q00975 whole entry): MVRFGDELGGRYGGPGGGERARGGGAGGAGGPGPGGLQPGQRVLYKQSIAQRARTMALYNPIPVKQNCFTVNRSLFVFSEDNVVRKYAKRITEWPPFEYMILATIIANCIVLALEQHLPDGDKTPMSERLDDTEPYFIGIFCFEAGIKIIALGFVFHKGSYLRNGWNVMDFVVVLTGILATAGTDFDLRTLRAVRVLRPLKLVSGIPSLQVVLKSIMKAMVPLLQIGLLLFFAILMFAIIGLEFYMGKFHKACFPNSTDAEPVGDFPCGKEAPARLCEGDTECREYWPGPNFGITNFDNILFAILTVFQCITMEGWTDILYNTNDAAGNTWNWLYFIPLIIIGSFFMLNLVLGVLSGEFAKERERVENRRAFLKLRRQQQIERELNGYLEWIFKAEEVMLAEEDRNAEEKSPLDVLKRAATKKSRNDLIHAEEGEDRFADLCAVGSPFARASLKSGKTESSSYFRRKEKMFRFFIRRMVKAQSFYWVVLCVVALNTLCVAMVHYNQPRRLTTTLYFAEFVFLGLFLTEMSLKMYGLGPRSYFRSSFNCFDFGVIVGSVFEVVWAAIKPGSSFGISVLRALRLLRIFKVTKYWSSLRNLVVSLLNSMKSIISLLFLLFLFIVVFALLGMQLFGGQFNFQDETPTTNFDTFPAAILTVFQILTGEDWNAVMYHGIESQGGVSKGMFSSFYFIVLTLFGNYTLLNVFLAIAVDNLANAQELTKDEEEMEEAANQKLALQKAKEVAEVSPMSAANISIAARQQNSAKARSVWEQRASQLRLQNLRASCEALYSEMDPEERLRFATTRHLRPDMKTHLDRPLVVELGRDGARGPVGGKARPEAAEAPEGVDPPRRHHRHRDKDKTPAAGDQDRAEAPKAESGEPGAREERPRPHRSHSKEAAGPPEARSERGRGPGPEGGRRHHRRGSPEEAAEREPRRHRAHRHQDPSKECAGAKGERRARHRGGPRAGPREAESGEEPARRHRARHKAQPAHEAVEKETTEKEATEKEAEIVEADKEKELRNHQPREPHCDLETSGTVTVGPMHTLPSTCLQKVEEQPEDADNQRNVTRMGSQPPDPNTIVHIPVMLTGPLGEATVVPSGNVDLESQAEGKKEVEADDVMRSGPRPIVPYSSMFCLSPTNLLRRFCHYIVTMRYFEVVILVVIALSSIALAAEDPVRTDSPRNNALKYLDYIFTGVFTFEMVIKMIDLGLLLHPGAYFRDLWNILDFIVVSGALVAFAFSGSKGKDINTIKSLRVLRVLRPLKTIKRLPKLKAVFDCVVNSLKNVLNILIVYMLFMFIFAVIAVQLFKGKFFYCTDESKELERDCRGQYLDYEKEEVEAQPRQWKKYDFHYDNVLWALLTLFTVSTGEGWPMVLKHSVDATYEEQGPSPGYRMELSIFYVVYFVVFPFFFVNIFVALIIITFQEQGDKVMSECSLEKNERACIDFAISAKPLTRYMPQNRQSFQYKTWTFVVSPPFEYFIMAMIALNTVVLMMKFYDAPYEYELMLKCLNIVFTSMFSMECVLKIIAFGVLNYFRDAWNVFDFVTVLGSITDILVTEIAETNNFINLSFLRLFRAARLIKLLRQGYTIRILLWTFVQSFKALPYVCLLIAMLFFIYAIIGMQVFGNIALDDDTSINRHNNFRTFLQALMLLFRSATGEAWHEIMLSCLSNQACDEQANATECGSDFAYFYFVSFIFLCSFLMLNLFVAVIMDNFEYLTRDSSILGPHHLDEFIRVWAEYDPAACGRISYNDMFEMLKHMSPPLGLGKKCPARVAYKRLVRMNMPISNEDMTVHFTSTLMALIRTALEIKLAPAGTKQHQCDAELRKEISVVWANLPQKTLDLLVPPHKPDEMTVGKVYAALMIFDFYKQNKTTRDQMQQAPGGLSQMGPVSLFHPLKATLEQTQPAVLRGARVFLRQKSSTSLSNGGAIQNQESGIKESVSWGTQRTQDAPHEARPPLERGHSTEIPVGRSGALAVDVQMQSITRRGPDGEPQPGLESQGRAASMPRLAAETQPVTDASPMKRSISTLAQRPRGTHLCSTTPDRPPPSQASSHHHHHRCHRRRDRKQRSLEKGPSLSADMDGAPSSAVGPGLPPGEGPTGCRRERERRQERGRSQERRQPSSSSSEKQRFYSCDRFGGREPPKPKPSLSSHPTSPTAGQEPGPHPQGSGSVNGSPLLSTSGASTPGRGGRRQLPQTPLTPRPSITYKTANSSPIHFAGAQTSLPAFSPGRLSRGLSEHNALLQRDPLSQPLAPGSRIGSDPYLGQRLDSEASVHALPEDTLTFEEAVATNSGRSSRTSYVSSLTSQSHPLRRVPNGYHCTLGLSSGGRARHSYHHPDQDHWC
T2 sequence (Q02410 whole entry): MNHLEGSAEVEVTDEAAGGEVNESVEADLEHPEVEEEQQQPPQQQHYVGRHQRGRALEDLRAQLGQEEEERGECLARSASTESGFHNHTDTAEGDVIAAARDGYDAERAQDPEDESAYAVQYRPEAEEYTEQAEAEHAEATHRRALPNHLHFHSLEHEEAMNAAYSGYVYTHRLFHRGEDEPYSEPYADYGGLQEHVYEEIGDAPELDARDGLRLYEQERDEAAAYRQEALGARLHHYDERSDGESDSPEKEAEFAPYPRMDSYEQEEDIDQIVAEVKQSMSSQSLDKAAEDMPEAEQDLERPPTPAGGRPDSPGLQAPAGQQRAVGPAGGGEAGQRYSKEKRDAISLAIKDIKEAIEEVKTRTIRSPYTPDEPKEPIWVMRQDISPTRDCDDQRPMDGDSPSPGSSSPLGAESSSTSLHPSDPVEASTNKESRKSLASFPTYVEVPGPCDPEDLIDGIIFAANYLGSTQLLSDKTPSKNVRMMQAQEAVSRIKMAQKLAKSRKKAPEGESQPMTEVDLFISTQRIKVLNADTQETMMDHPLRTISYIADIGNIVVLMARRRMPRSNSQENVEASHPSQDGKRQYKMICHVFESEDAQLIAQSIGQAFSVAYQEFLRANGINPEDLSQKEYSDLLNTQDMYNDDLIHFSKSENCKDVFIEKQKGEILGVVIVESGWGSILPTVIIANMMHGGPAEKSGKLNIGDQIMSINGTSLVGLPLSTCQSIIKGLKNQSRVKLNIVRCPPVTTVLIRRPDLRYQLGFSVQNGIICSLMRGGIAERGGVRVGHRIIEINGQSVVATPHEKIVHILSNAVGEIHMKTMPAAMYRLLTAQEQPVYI
Assay [8] deals with T2, Voltage-gated N-type calcium channel alpha-1B subunit/Amyloid beta A4 precursor protein-binding family A member 1. The format is protein assay. This is another data set of the same source.
The target of assay [9] is Eukaryotic translation initiation factor 4E (Mus musculus, UniProt P63073). Briefly: eIF4E–eIF4G protein interaction inhibitors, dose response, biochemical, TR-FRET (AID 855).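 Note: potency for disrupting eIF4E binding to eIF4GI seen as loss of FRET.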 The format is functional. A general note: Time-resolved FRET reads energy transfer from a long-lived donor to a nearby acceptor.
Assay [10] deals with Glyceraldehyde-3-phosphate dehydrogenase (Homo sapiens, UniProt P04406).
The nature of assay [11]: cytotoxicity toward NIH3T3 fibroblasts, dose response, counter-screen, cell-based, ATP luminescence, mouse fibroblasts (AID 2010).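 Note: cells exposed to compound for about 90 hours before reading.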 Type of assay: functional.
Assay [12] is described as follows: inhibitors of intracellular T. cruzi replication, confirmation, NIH3T3 host cells, beta-gal luminescence (AID 2044).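 Note: intracellular parasites grown in NIH/3T3 mouse fibroblasts as host cells; luminescent beta-galactosidase reporter signal from transgenic T. cruzi replicating inside host cells; inhibitors lower the luminescence signal.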 The format is functional, cell-based.
Assay [13] has as its system HEK293. Put plainly: NOD1 signaling inhibitors, primary screen, cell-based, luminescence, uHTS (AID 1578). Type of assay: functional. The following applies: Homo sapiens.
The subject of assay [14] is HEK293. Briefly: cells. Type of assay: functional, cell-based. The following applies: Homo sapiens.
The test system of assay [15] is HEK293. Briefly: cells. Type of assay: functional, cell-based. The following applies: Homo sapiens. The source holds these as a separate data set.
Assay [16] deals with HEK293. Put plainly: cells. The following applies: Homo sapiens. The format is functional, cell-based. This is another data set of the same source.
The subject of assay [17] is HEK293. Briefly: NOD2 signaling inhibitors in MDP-stimulated cells, cell-based, uHTS, luminescence (AID 2001). The following applies: Homo sapiens. Type of assay: functional.
In another assay the test system is INS1. Briefly: beta cell apoptosis inhibitors, cytokine rescue, dose response, luminescence, retest (AID 449756).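 Note: cell death triggered by IL-1 beta plus TNF-alpha plus IFN-gamma mixture; protective hits raise ATP signal compared with cytokine alone wells.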 Type of assay: functional, cell-based. The following applies: Rattus norvegicus.
Assay [18] deals with T3, DNA repair and recombination protein RAD54-like (Homo sapiens, UniProt Q92698).
T3 sequence (Q92698 whole entry): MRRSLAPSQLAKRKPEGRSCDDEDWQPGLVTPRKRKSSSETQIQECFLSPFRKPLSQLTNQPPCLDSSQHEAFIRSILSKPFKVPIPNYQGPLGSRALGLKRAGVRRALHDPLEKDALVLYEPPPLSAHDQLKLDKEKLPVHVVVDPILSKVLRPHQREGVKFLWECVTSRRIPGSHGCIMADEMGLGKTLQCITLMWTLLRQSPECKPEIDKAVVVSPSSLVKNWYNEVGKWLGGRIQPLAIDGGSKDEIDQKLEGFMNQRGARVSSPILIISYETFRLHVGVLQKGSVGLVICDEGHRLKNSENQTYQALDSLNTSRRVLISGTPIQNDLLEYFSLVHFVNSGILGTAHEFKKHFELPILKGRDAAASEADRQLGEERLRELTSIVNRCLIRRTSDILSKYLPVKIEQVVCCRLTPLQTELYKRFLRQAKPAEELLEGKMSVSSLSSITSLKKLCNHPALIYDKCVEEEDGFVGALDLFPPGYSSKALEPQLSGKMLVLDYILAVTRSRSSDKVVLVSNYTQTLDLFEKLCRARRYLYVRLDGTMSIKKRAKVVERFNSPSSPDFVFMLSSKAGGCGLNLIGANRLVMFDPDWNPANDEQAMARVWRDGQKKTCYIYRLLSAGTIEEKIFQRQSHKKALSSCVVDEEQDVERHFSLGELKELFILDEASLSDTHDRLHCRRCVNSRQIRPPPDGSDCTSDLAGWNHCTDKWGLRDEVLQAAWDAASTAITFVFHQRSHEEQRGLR
Put plainly: inhibitors of human RAD54 branch migration, confirmation, biochemical, fluorescence, cherry-picked samples, dose series (AID 651657). Type of assay: functional.

The target of assay [19] is T4, Heat shock factor protein 1 (Mus musculus, UniProt P38532).
T4 sequence (P38532 whole entry): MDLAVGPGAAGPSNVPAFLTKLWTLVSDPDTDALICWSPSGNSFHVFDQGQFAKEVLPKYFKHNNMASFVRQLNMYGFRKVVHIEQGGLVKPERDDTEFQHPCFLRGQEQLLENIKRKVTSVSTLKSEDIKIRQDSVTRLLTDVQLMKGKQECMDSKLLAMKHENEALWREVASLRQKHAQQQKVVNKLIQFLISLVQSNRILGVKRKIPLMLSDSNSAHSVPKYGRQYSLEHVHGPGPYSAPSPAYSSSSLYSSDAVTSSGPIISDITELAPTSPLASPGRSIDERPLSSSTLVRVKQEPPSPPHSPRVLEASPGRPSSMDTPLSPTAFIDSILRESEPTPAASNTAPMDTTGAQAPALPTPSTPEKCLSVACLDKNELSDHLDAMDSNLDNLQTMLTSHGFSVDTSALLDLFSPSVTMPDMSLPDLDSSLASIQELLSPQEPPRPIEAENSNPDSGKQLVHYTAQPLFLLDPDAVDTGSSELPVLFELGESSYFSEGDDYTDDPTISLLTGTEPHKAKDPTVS
Briefly: HSF1 potentiators in luciferase reporter cells, confirmation, cell-based, NIH3T3, luminescence, dose retest (AID 435004).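 Note: stress induced by proteasome inhibitor MG132 added 30 min after compound; luciferase reporter driven by HSF1 response element in NIH3T3 cells; actives raise luminescence as potentiators of the MG132 stress response.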 The format is functional.

Chain of Delta-type opioid receptor (P41143 whole entry): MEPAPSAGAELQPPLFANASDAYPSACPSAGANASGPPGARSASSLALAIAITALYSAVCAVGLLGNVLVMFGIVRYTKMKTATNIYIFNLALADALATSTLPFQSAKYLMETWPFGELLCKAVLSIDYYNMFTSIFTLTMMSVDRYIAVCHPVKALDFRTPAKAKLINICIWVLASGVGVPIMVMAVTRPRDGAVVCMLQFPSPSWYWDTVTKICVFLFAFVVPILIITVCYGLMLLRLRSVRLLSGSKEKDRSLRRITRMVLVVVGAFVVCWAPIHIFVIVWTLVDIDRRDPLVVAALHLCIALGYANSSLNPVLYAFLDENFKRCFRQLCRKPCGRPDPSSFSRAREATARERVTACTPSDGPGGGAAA
Chain of 5-hydroxytryptamine receptor 5A (P47898 whole entry): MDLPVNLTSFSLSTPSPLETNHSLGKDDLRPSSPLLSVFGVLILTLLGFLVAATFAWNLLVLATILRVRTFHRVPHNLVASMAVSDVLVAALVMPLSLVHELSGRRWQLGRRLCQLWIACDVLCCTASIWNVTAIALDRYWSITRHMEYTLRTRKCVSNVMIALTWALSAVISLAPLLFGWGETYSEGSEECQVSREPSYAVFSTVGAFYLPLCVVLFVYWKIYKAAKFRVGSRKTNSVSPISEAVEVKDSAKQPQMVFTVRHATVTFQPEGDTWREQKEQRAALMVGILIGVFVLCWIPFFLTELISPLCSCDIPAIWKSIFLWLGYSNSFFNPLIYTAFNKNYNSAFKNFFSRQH

In the case of `FC(F)(F)c1cnc(NNC(=S)Nc2ccccc2Cl)c(Cl)c1`, the EC50 in assay [1] was 11 µM (active).
With `Cc1ccc(N)cc1Cl`, the AC50 on Cytochrome P450 3A4 was 12.6 µM (inconclusive).
On to `CCC1(C)CC(CCNCc2ccc(N(C)C)cc2)(c2ccc(F)cc2)CCO1` (configuration not stated), for which the EC50 in [2] is > 92.3 µM (inactive); in [3] it was > 92.3 µM (inactive); on Mu-type opioid receptor it was 29.2 µM (inactive); in assay [4], 5.96 µM (active).
For `Cc1ccccc1/C=C/c1cc[n+](C)cc1`, the values for the IC50 in [5] and in [6] were 2.33 µM (active) and 3.38 µM (active), respectively.
With `O=C(O)c1cc(-c2ccco2)nn1-c1ccc(Cl)cc1`, the IC50 was 22.1 µM (active) in [7], 5.13 µM (active) in assay [8] and 50 µM (inactive) in assay [9].
As to `C[C@H]1C[C@]2(O[C@@H]2C)C(=O)O[C@@H]2CCN(C)C/C=C(/COC(=O)[C@]1(C)O)C2=O`, the AC50 at Cytochrome P450 3A4 was 25.1 µM (inconclusive).
Turning to `O=C(CSc1ccc(Cl)cc1)Nc1ccc(-c2nc3ccccc3[nH]2)cc1`, the EC50 (in [2]; in assay [3]; at Mu-type opioid receptor) was > 92.5 µM (inactive) each time.
Consider `CC(C)c1ccc(/C=C2\SC(=O)N(CC(=O)NC3CCS(=O)(=O)C3)C2=O)cc1` (configuration not stated), for which the IC50 in [7] is > 50 µM (inactive); in assay [8], 12.4 µM (active).
For `Cc1cc(C)nc(NC(=S)Nc2ccc(Br)cc2Cl)c1` the same measures were > 50 µM (inactive) and 5.57 µM (active).
`CCCn1c(C)nc2c(NCCCCN(CC)CC)nc(C)nc21`: the AC50 on Cytochrome P450 3A4 was 20 µM (inconclusive).
Consider `OCC1(CCc2ccccc2)CCN(Cc2ccccc2Cl)CC1`, for which the results for the EC50 (in [2]; in assay [3]; at Mu-type opioid receptor) were > 92.4 µM (inactive), > 92.4 µM (inactive) and 67.6 µM (inactive), respectively.
As for `COc1ccc(N2CCN(C3=C(Cl)C(=O)N(c4cccc(OC)c4)C3=O)CC2)cc1`, in [10], the IC50 was > 50 µM (inconclusive).
On to `CCOC(=O)C1(CCOc2ccccc2)CCN(Cc2cccn2-c2cccnc2)CC1`, for which the EC50 was > 92.5 µM (inactive) in [2]; > 92.5 µM (inactive) in assay [3]; > 30 µM (not active) in assay [11]; 2.94 µM (active) in assay [12]; 17.5 µM (inactive) on Mu-type opioid receptor.
With `FC(F)(F)c1cnc(NN=C(S)Nc2ccccc2Cl)c(Cl)c1`, the EC50 in the assay with HEK293 [13] was 6.06 µM (active). For the same compound, the IC50 in the assay with HEK293 [14] is 15.1 µM (active); with HEK293 [15], > 20 µM (inactive); in the assay on HEK293 [16], 6.49 µM (active); with HEK293 [17], 6.98 µM (inactive). For the same compound, in the assay on INS1, the AC50 is 7.04 µM (active).
As for `Cc1c(CN(C)C)c2c(n1C)C(=O)c1ccc(Br)cc1-2`, the AC50 in assay [18] is 11.8 µM (active).
For the compound `CCC1=C2CC[C@H]3C(=O)N(CC(=O)OC)C(=O)[C@H]3[C@H]2[C@@]2(C)C(=O)N(CC3CC3)C(=O)N2C1=O`, the half-maximal activity concentration (AC50) on Cytochrome P450 3A4 is 7.94 µM (inconclusive).
Consider `CCN(CC)c1ccc(S(=O)(=O)N2CCOCC2)cc1NC(=O)CN1CCc2ccccc2C1`, for which the values for the EC50 (with HEK293 [13]; in assay [1]) were 10.5 µM (active) and 11.5 µM (active), respectively. Moreover, the IC50 in the assay with HEK293 [14] was > 20 µM (inactive); in the assay on HEK293 [15], > 20 µM (inactive); with HEK293 [16], 7.07 µM (active); in the assay with HEK293 [17] it was 11.5 µM (inactive).
For `C[C@H]1CN(C2=C(Cl)C(=O)N(c3ccnc(Cl)c3)C2=O)CCN1`, the IC50 in assay [10] is > 50 µM (inconclusive).
In the case of `Cc1ccc(C)c(NC(=O)C2CC(O)CN2C(=O)Oc2ccccc2)c1` (configuration not stated), the values for the IC50 in assay [5] and in assay [6] were 10 µM (active) and 10.4 µM (active), respectively. Further, in assay [19], the EC50 is > 260 µM (inactive).

One may read the EC50 as the midpoint of the concentration-response curve. In general, AC50 refers to the midpoint of the concentration-response curve, whichever way the signal moves. Broadly, the IC50 is the concentration that gives 50% inhibition.
